Data taken from patent publication US8039500B2, “Fused heterocyclic compounds” (Takeda Pharmaceutical Company Limited, priority 2006, dated 2011).

System: not given
Test: not given
Conditions: not given

Row | SMILES | melting point
1 | CCN(CC)c1cccc2nc(Cc3c(Cl)cc(C(F)(F)F)cc3Cl)n(C)c12 [Example 2, 2-[2,6-Dichloro-4-(trifluoromethyl)benzyl]-N,N-diethyl-1-methyl-1H-benzimidazol-7-amine] | 150 to 151 °C
2 | CCC(CC)c1cccc2nc(C(O)c3c(C)cc(C)cc3C)n(C)c12 (stereo not drawn) [Example 10, [7-(1-Ethylpropyl)-1-methyl-1H-benzimidazol-2-yl](mesityl)methanol] | 132 to 134 °C

Molecular target: T1, human CRF receptor (Homo sapiens, UniProt P34998)
T1 construct: expressed in transfected cells; host or cells: CHO cells (membrane fraction)
T1 sequence (P34998 24-415): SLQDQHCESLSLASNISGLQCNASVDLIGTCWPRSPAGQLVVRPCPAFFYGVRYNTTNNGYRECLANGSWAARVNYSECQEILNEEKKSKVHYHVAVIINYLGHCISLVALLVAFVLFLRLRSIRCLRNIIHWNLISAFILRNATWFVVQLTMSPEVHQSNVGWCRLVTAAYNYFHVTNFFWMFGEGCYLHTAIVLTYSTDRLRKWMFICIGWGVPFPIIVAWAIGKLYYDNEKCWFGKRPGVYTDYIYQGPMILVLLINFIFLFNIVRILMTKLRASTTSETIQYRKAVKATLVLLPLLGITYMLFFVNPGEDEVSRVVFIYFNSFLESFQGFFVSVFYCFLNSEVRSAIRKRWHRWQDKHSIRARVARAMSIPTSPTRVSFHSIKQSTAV
Test: CRF binding inhibitory rate / receptor binding experiment with 125I-CRF
Conditions: human CRF receptor expressing CHO cellular membrane fraction, 50 pM 125I-CRF (ovine CRF), room temperature 1.5 hr, 0.05 nM to 10 μM of compound; read-out: IC50 values (CRF binding inhibition)
Description: Measurement of CRF Binding Inhibitory Rate
A receptor binding experiment was carried out using a human CRF receptor expressing CHO cellular membrane fraction and ovine CRF, [^125I]-tyr^0(^125I-CRF). 1000 nM of a test compound was incubated with 1 μg of human CRF receptor expressing CHO cellular membrane fraction and 50 pM of ^125I-CRF in a binding assay buffer (50 mM Tris-HCl, 5 mM EDTA, 10 mM MgCl2, 0.05% CHAPS, 0.1% BSA, 0.5 mM PMSF, 0.1 μg/mL pepstatin, 20 μg/mL leupeptin, pH 7.5). In addition, for measuring nonspecific binding (NSB), 0.1 μM unlabelled human Urocortin was incubated with 5 μg of human CRF receptor expressing CHO cellular membrane fraction and 50 pM of ^125I-CRF in a binding assay buffer. After a binding reaction was carried out at room temperature for 1.5 hr, the membrane was entrapped on a glass filter (UniFilter plate GF-C/Perkin Elmer) by suction filtration using a cell harvester (Perkin Elmer), and washed with ice-cooled 50 mM Tris-HCl (pH 7.5). After drying the glass filter, a liquid scintillation cocktail (Microscinti 0, Perkin Elmer) was added, and the radioactivity of ^125I-CRF remaining on a glass filter was measured using Topcount (Perkin Elmer).
(TB-SB)/(TB-NSB)×100 (SB: radioactivity when a compound is added, TB: maximum binding radioactivity, NSB: nonspecific binding radioactivity) were calculated to obtain binding inhibitory rates under the range of the presence from 0.05 nM to 10 μM of each compound. The IC50 values were calculated by using GraphPad Prism software.

Row | SMILES | IC50
3 | CCN(CC)c1cccc2nc(Cc3c(Cl)cc(C(F)(F)F)cc3Cl)n(C)c12 [Example 2, 2-[2,6-Dichloro-4-(trifluoromethyl)benzyl]-N,N-diethyl-1-methyl-1H-benzimidazol-7-amine] | < 1 µM
4 | CCC(c1cccc2nc(Cc3c(Cl)cc(C(F)(F)F)cc3Cl)n(C)c12)C(C)OC(C)=O (mixture of isomers) [Example 8, 2-{2-[2,6-Dichloro-4-(trifluoromethyl)benzyl]-1-methyl-1H-benzimidazol-7-yl}-1-methylbutyl acetate] | < 1 µM
5 | CCC(CC)c1cccc2nc(C(O)c3c(C)cc(C)cc3C)n(C)c12 (stereo not drawn) [Example 10, [7-(1-Ethylpropyl)-1-methyl-1H-benzimidazol-2-yl](mesityl)methanol] | < 1 µM
6 | CCN(CC)c1cccc2nc(Cc3c(C)cc(C)cc3C)n(C)c12 [Example 1, N,N-Diethyl-2-(mesitylmethyl)-1-methyl-1H-benzimidazol-7-amine] | < 1 µM
7 | CCC(c1cccc2nc(Cc3c(Cl)cc(C(F)(F)F)cc3Cl)n(C)c12)C(C)O (stereo not drawn) [Example 9, 3-{2-[2,6-Dichloro-4-(trifluoromethyl)benzyl]-1-methyl-1H-benzimidazol-7-yl}pentan-2-ol] | < 1 µM
8 | CC=C(CC)c1cccc2nc(Cc3c(C)cc(C)cc3C)n(C)c12 (mixture of isomers) [Example 4, 7-[1-Ethylprop-1-en-1-yl]-2-(mesitylmethyl)-1-methyl-1H-benzimidazole] | < 1 µM
9 | CCC(O)(CC)c1cccc2nc(Cc3c(C)cc(C)cc3C)n(C)c12 [Example 3, 3-[2-(Mesitylmethyl)-1-methyl-1H-benzimidazol-7-yl]pentan-3-ol] | < 1 µM
10 | CCC(O)(CC)c1cccc2nc(Cc3c(Cl)cc(C(F)(F)F)cc3Cl)n(C)c12 [Example 6, 3-{2-[2,6-Dichloro-4-(trifluoromethyl)benzyl]-1-methyl-1H-benzimidazol-7-yl}pentan-3-ol] | < 1 µM
11 | CC=C(CC)c1cccc2nc(Cc3c(Cl)cc(C(F)(F)F)cc3Cl)n(C)c12 [Example 7, 2-[2,6-Dichloro-4-(trifluoromethyl)benzyl]-7-[1-ethylprop-1-en-1-yl]-1-methyl-1H-benzimidazole] | < 1 µM
12 | CCC(CC)c1cccc2nc(Cc3c(C)cc(C)cc3C)n(C)c12 [Example 5, 7-(1-Ethylpropyl)-2-(mesitylmethyl)-1-methyl-1H-benzimidazole] | < 1 µM
